Test results taken from US20130244296A1, “HALOGENATION ENZYMES” (priority 2011, published 2013).
Read-outs that look alike come from different tables or passages of the source.

Key:
Rdc2 halogenase = target: T1, Rdc2 halogenase (Metacordyceps chlamydosporia, UniProt B3FWT7, INS404VIQGSGSS/INS87YTDFIA/S88A); assay type: biochemical, P. chlamydosporia; conditions: three independent experiments
T1 construct: 2 was concentrated and exchanged into Buffer A; His6 (N); made in house; host or cells: Escherichia coli BL21-CodonPlus (DE3)-RIL
T1 sequence (B3FWT7 other isoform, or with tags, fused parts or gaps INS87YTDFIA/S88A/INS404VIQGSGSS): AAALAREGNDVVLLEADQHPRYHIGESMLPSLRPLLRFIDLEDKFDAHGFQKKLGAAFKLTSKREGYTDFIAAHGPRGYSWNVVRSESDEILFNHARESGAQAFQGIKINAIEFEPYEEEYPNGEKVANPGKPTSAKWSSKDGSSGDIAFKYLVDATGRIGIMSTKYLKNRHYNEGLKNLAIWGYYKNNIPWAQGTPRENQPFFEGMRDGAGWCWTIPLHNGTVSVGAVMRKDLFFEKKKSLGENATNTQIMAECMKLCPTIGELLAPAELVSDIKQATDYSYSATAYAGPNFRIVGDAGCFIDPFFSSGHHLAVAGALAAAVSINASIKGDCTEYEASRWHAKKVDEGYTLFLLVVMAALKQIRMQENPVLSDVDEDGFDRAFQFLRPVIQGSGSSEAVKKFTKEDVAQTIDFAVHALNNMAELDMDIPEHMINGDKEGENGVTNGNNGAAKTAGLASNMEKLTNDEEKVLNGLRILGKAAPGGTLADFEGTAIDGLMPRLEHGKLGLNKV
Experimental: Kinetic analysis of two chlorination steps of dihydroresorcylide (compound 3) by an Rdc2 halogenase of the present disclosure was carried out. Dihydroresorcylide (compound 3) was chosen as the substrate to study the kinetics of the Rdc2 halogenase. To measure the ka, and Km for the C-11 chlorination, a series of 100-μL reaction systems were set up containing 100 μM FAD, 10 mM NADH, 10 mM NaCl, 16 μM Fre, and 16 μM Rdc2 halogenase in 100 mM phosphate buffer (pH 7.0) with varying amount of compound 3 (0.17 to 1.71 mM) in each tube. All the reaction components and Fre were mixed thoroughly and maintained at 28° C. for 2 min. Rdc2 was then added to initiate the reaction. After 30 minutes, the reactions were quenched with 200 μL of MeOH, briefly vortexed, and centrifuged at 15,000 rpm for 5 minutes. Product formation was quantified on the HPLC at 315 nm based on the area of the peaks and standard curve of compound 3a. Reactions were run in triplicate and the steady-state parameters kcat and Km were determined by nonlinear fitting of Michaelis-Menten equation.
For the second halogenations step, C-13 chlorination, the same method was used to determine kcat and Km except that 11-chlorodihydroresorcylide (compound 3a) was used as the substrate (0.03-0.18 mM).

[1] = system: heat shock protein 90 (Hsp90); conditions: general statement, no test described; cited from earlier work
[2] = C-13 halogenation (chlorination), compound 3a as substrate

With `C[C@H]1CCCCCC(=O)Cc2cc(O)cc(O)c2C(=O)O1` [Compound 3, dihydroresorcylide] the Km (Rdc2 halogenase; C-11 halogenation (chlorination), compound 3 as substrate, 16 μM Fre, 16 μM Rdc2, pH 7.0, 28° C., 30 minutes) was 281 ± 20 µM and the kcat (Rdc2 halogenase; C-11 halogenation (chlorination), compound 3 as substrate) was 0.0137 ± 0.000667 s⁻¹.
For `C[C@@H]1C[C@H]2O[C@@H]2/C=C\C=C\C(=O)Cc2c(Cl)c(O)cc(O)c2C(=O)O1` [Compound 1a, radicicol], the Hsp90 inhibition [1] is given as “potent”.
`CC1CCCC(=O)CCCc2c(Cl)c(O)cc(O)c2C(=O)O1` (stereo not drawn) [Compound 3a, 11-chlorodihydroresorcylide] gave a Km (Rdc2 halogenase; [2]) of 846 ± 26 µM and a kcat (Rdc2 halogenase; [2]) of 0.0016 ± 6.7e-05 s⁻¹.
In the case of `C[C@@H]1C[C@H]2O[C@@H]2/C=C\C=C\C(=O)Cc2cc(O)cc(O)c2C(=O)O1` [Compound 1, monocillin I], the Hsp90 inhibition [1] is given as “potent”.
